We go through 15 compounds from patent US5639779A, “Indole derivatives as 5-HT1-like agonists” (Pfizer Inc., priority 1992, dated 1997).

Data set [1] addresses T1, "5-HT1 -like" receptor (dog isolated saphenous vein strip) (Canis lupus familiaris, UniProt P79250).
T1 construct: contracting the isolated dog saphenous vein strip; from tissue; host or cells: dog isolated saphenous vein strip
The data set is described as follows: contraction of dog isolated saphenous vein strip (5-HT1-like receptor agonist activity). Format: cell-based. Particulars: in vitro; for RELATIVE POTENCY EC50 (compound)/EC50 (5-HT): ratio to 5-HT; for pEC50: read-out: EC50 (concentration of compound which causes 50% of the maximum contraction effected by it). As for the experimental part:
The in vitro evaluation of the "5-HT1 -like" receptor agonist activity of the compounds of the invention is carried out by testing the extent to which they mimic sumatriptan in contracting the isolated dog saphenous vein strip (P. P. A. Humphrey et al., Brit. J. Pharmacol., 1988, 94, 1123).
The following Table illustrates the in vitro activities for a range of the Compounds of the invention on dog isolated saphenous vein strip. EC50 represents the concentration of compound which causes 50% of the maximum contraction effected by it.

Another data set deals with conscious dogs. The data set is described as follows: acute toxicity in conscious dogs. Format: in vivo, dog. The settings on record: doses of up to 1 mg/Kg i.v.
For data set [2], the target named is T1, "5-HT1 -like" receptor (dog isolated saphenous vein strip). Particulars: effect of sumatriptan-like contraction blocked by a known 5-HT antagonist; cited from earlier work.
In data set [3] the test system is carotid vascular resistance / carotid arterial blood flow. Particulars: anaesthetized dog; cited from earlier work.

pEC50: −log10 of the molar value.

T1 sequence (P79250 whole entry): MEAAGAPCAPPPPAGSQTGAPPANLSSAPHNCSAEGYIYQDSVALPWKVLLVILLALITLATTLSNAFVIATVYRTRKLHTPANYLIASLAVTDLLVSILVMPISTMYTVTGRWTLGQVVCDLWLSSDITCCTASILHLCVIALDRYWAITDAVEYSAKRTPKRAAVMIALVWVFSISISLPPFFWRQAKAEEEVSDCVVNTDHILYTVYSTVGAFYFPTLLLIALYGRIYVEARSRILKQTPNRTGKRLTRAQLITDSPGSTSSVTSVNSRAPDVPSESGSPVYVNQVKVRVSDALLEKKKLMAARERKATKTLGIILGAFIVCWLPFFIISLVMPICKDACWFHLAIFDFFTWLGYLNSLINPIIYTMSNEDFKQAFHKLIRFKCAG

For `CCS(=O)(=O)CCc1ccc2[nH]cc(C[C@H]3CCCN3Cc3ccccn3)c2c1` [Example 1, 5-(2-Ethylsulphonylethyl)-3-[N-[2-pyridylmethyl)-2(R)-pyrrolidinylmethyl]-1H-indole], in data set [1], the “RELATIVE POTENCY EC50 (compound)/EC50 (5-HT)” value (“RELATIVE POTENCY EC50” for short) was 9.4 and the pEC50 was 6.37.
`CCS(=O)(=O)CCc1ccc2[nH]cc(C[C@H]3CCCN3CCc3ccccn3)c2c1` [Example 36]: in data set [1], the “RELATIVE POTENCY EC50” value worked out at 11.0 and the pEC50 was 6.54.
Turning to `CCS(=O)(=O)CCc1ccc2[nH]cc(C[C@H]3CCCN3CCO)c2c1` [Example 26, 5-(2-Ethylsulphonylethyl)-3-[N-(2-hydroxyethyl)-2(R)pyrrolidinylmethyl]-1H-indole], in data set [1], the “RELATIVE POTENCY EC50” value worked out at 3.8 and the pEC50 was 6.80.
For the compound `CCS(=O)(=O)CCc1ccc2[nH]cc(C[C@H]3CCCN3CCC(C)=O)c2c1` [Example 31, 5-(2-Ethylsulphonylethyl)-3-[N-{3-oxo-1-butyl)-2(R)-pyrrolidinylmethyl]-1H-indole], in data set [1], the “RELATIVE POTENCY EC50” value is reported as 1.9 and the pEC50 is 7.51.
As to `CCS(=O)(=O)CCc1ccc2[nH]cc(C[C@H]3CCCN3C3CCCC3)c2c1` [Example 9, 3-(N-Cyclopentyl-2(R)-pyrrolidinylmethyl)-5-(2-ethylsulphonylethyl)-1H-indole], in data set [1], the “RELATIVE POTENCY EC50” value worked out at 1.8 and the pEC50 was 7.09.
Consider `O=S(=O)(CCc1ccc2[nH]cc(C[C@H]3CCCN3C3CCCC3)c2c1)c1ccccc1` [Example 21, 3-(N-Cyclopentyl-2(R)-pyrrolidinylmethyl)-5-(2-phenylsulphonylethyl)-1H-indole], for which, in data set [1], the “RELATIVE POTENCY EC50” value is listed as 4.9 and the pEC50 was 6.25.
In the case of `CCS(=O)(=O)CCc1ccc2[nH]cc(C[C@H]3CCCN3C(C)c3ccccc3)c2c1` (mixture of isomers) [Example 13, 5-(2-Ethylsulphonylethyl)-3-{N-(1(R,S)-phenylethyl]-2(R)-pyrrolidinylmethyl}-1H-indole], in data set [1], the “RELATIVE POTENCY EC50” value was 1.4 and the pEC50 is 7.15. Further, in the data set with conscious dogs, the “signs of adverse acute toxicity” value was “no signs of adverse acute toxicity”.
As for `NS(=O)(=O)C=Cc1ccc2[nH]cc(C[C@H]3CCCN3CC3CC3)c2c1` [Example 44, 3-(N-Cyclopropylmethyl-2(R)-pyrrolidinomethyl)-5-(2-sulphamoylethenyl)-1H-indole], in data set [1], the “RELATIVE POTENCY EC50” value is on record as 2.7 and the pEC50 was 6.74.
For the compound `CCS(=O)(=O)CCc1ccc2[nH]cc(C[C@H]3CCCN3CCOC)c2c1` [Example 4, 5-(2-Ethylsulphonylethyl)-3-[N-(2-methoxyethyl)-2-(R)-pyrrolidinylmethyl]-1H-indole], in data set [1], the “RELATIVE POTENCY EC50” value came out at 2.3 and the pEC50 is 6.92.
As to `CCS(=O)(=O)CCc1ccc2[nH]cc(C[C@H]3CCCN3CC=C(C)C)c2c1` [Example 8, 5-(2-Ethylsulphonylethyl)-3-[N-(3-methyl-2-butenyl)-2(R)-pyrrolidinylmethyl]-1H-indole], in data set [1], the “RELATIVE POTENCY EC50” value is 2.5 and the pEC50 is 6.72. In the data set on conscious dogs, the “signs of adverse acute toxicity” value is listed as “no signs of adverse acute toxicity”.
For the compound `CCS(=O)(=O)CCc1ccc2[nH]cc(C[C@H]3CCCN3CC[S+]([O-])c3ccccc3)c2c1` (single isomer, unassigned) [Example 37A], in data set [1], the “RELATIVE POTENCY EC50” value is listed as 4.6 and the pEC50 was 6.54.
Take `CC(=O)CCN1CCC[C@@H]1Cc1c[nH]c2ccc(CCS(=O)(=O)c3ccccc3)cc12` [Example 38, 3-[N-(3-Oxo-1-butyl)-2-(R)-pyrroldinylmethyl]-5-(2phenylsulphonylethyl)-1H-indole]: in data set [1], the “RELATIVE POTENCY EC50” value is listed as 3.4 and the pEC50 is 6.36.
The corresponding values for `CCS(=O)(=O)CCc1ccc2[nH]cc(C[C@H]3CCCN3CCC(N)=O)c2c1` [Example 34] are 1.4 and 7.21.
On to `CSc1ccc2c(c1)C(N1CCN(C)CC1)Cc1ccccc1S2` (stereo not drawn) [methiothepin], for which the “blockade of contraction of dog saphenous vein strip” value in data set [2] is recorded as “can be blocked”.
In the case of `CNS(=O)(=O)Cc1ccc2[nH]cc(CCN(C)C)c2c1` [Sumatriptan], the “carotid arterial blood flow” value in data set [3] is on record as “consequent decrease”.
